Among the data in PubChem BioAssay (NCI) are GI50 and TGI values, retold here.

Assay in all cases: inhibition of tumour cell growth, NCI panel, 48 h
Test [1] relates to 786-0 renal.
Test [2] has as its system NCI/ADR-RES ovarian.
Test [3] has as its system SK-MEL-2 melanoma.
Test [4] relates to SK-MEL-5 melanoma.
Test [5] deals with NCI-H460 lung.
Test [6] has as its system OVCAR-5 ovarian.
The subject of test [7] is OVCAR-3 ovarian.
Test [8] has as its system SNB-75 CNS.
Test [9] relates to A498 renal.
Test [10] deals with CCRF-CEM leukemia.

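Dose response: 5 concentrations. Exposure: 48 h. Format: 96-well plates. Endpoint: linear interpolation; highest concentration if not reached. GI50 = concentration required for 50% inhibition of growth. TGI: concentration producing complete growth inhibition.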

Consider `CCOC(=O)c1sc(-c2ccc(OS(=O)(=O)c3ccc(Br)s3)c(C=O)c2)nc1C`, for which the GI50 in [1] was 2750 nM; in test [2] it was 2.96 µM; in [3], 4.83 µM; in test [4], 1740 nM; in test [5], 22.7 µM; in test [6], 10 µM. For the same compound, the GI50 is 2480 nM in test [7], 1600 nM in test [8], 6.15 µM in [9] and 2360 nM in test [10]. The TGI in test [1] was determined as 8.16 µM; in test [2], 12.9 µM; in test [3], 27.8 µM; in test [4], 3.18 µM; in test [5] it was 58.6 µM; in [6], 26.3 µM. The TGI in test [7] came out at 6.71 µM; in test [8] it was 6.7 µM; in [9], 40.1 µM; in test [10], 9.16 µM.

As to `O=C(CC(c1ccccc1)c1c(O)c2ccccc2oc1=O)c1ccccc1` (stereo not drawn), the TGI in [1], in test [2], in test [3], in test [4], in test [5] and in [6] was above 100 µM each time. For the same compound, the TGI in test [7] is above 81.9 µM; in test [8], above 100 µM; in test [9] it was 98.6 µM; in test [10], above 100 µM.

For the compound `COC(=O)c1c2c(c[n+]([O-])c1C)C(=O)C=CC2=O`, the GI50 in test [1] is 2560 nM; in test [2], 3.27 µM; in test [3], 2.08 µM; in test [4] it was 1740 nM; in [5], 12.8 µM; in test [6], 1.9 µM. The GI50 is 317 nM in [7], 1720 nM in test [8], 13.1 µM in [9] and 2500 nM in [10]. In addition, the TGI in test [1] was determined as 6.39 µM; in test [2], 14.4 µM; in [3], 4.5 µM; in [4], 3.15 µM; in [5], 28 µM; in test [6] it was 3.85 µM. Moreover, the TGI in [7] came out at 1.17 µM; in test [8] it was 4.13 µM; in [9], 26.4 µM; in [10] it was 6.57 µM.

As to `[Cl][Hg][Cl]`, the GI50 in test [1] was 12600 nM; in test [2] it was 28.5 µM; in test [3], 16.2 µM; in test [4], 15400 nM; in test [5], 15.7 µM; in test [6], 19.3 µM. Further, the GI50 was 15900 nM in test [7], 18000 nM in test [8], 20.4 µM in test [9] and 1830 nM in test [10]. Also, the TGI in test [1] was 25.1 µM; in test [2], 79.6 µM; in [3] it was 34.5 µM; in test [4], 30.5 µM; in test [5] it was 35.5 µM; in test [6], 33.6 µM. In addition, the TGI in test [7] amounted to 32.1 µM; in test [8], 34.8 µM; in test [9], 34.7 µM; in test [10], 7.38 µM.

In the case of `CC(C)(C)C(=O)c1c(C(F)(F)F)n([O-])c2ccccc2[n+]1=O`, the GI50 in [1] was 729 nM; in test [2], 0.571 µM; in test [4], 240 nM; in test [5], 0.439 µM; in [6], 0.998 µM; in test [7], 174 nM. Moreover, the GI50 in test [8] was 460 nM; in test [9], 0.565 µM; in test [10], 577 nM. The TGI in test [1] was 2.46 µM; in [2], 2.36 µM; in test [3], 3.23 µM; in test [4] it was 0.83 µM; in [5] it was 1.52 µM; in test [6] it was 2.15 µM. In addition, the TGI in [7] amounted to 0.698 µM; in test [8], 2.05 µM; in [9], 1.75 µM; in test [10] it was 2.34 µM.

Regarding `C=C(C)C(=O)O[C@H]1C[C@@]23O[C@@H]2CCC(=C[C@H]2OC(=O)C(=C)[C@H]12)COC3O` (stereo partly drawn), the TGI in test [1], in test [2], in [3], in [4], in test [5] and in test [6] was above 100 µM each time. For the same compound, the TGI is above 100 µM in test [7], above 100 µM in test [8], above 100 µM in test [9] and 50.1 µM in test [10].

With `COc1ccc(-c2cn[nH]c2-c2cc(OC)c3c(c2)OCO3)cc1`, the GI50 is 585 nM in [1]; 0.12 µM in test [2]; 0.265 µM in test [3]; 277 nM in test [4]; 0.335 µM in [5]; 1.34 µM in test [6]. In addition, the GI50 was 196 nM in test [7], 134 nM in test [8], 0.0632 µM in test [9] and 266 nM in [10]. Besides, the TGI is 14.2 µM in test [1]; 27.4 µM in [2]; 17.8 µM in test [3]; 8.7 µM in [4]; 11.3 µM in test [5]; 36.6 µM in [6]. For the same compound, the TGI amounted to 0.596 µM in test [7], 0.707 µM in test [8], 1.13 µM in [9] and 21.3 µM in test [10].

As to `COc1ccc(S(=O)(=O)N2CC(C)(C)CN(S(=O)(=O)c3ccc(OC)cc3)C2C(=O)NO)cc1`, the GI50 in [1] was above 20000 nM; in test [2], above 20 µM; in test [3], above 20 µM; in test [5] it was above 20 µM; in test [6], above 20 µM; in [7] it was 19800 nM. Further, the GI50 in test [8] is above 20000 nM; in test [9] it was above 20 µM; in [10], 1290 nM. For the same compound, the TGI in [1] was above 20 µM; in [2], above 20 µM; in test [3], above 20 µM; in [4] it was above 7.63 µM; in test [5], above 20 µM; in [6], above 20 µM. The TGI is above 20 µM in test [7], above 20 µM in [8], above 20 µM in test [9] and above 16.6 µM in test [10].

As for `CN(C)CCCOc1ccc(-c2ccc3ncc4c(c3c2)n(C2CCOCC2)c(=O)n4C)cn1`, the GI50 is 1740 nM in test [1]; 3.86 µM in test [2]; 1.47 µM in test [3]; 1480 nM in test [4]; 0.94 µM in test [5]; 1.49 µM in [6]. Further, the GI50 is 1340 nM in test [7], 396 nM in test [8], 0.559 µM in test [9] and 3020 nM in [10]. Further, the TGI came to 12.1 µM in [1]; 21.9 µM in test [2]; 6.21 µM in test [3]; 7.47 µM in test [4]; 15.5 µM in test [5]; 30.4 µM in test [6]. Besides, the TGI in test [7] was found to be 10.3 µM; in test [8], 6.45 µM; in test [9] it was 3.64 µM; in test [10], 22.7 µM.

For the compound `CO[C@H]1/C=C/O[C@@]2(C)Oc3c(C)c(O)c4c(c3C2=O)C(=O)C(/C=N/N(c2ccccc2)c2ccccc2)=C(NC(=O)/C(C)=C\C=C\[C@H](C)[C@H](O)[C@@H](C)[C@@H](O)[C@@H](C)[C@H](OC(C)=O)[C@@H]1C)C4=O`, the GI50 was 1830 nM in test [1]; 2.4 µM in test [2]; 1.86 µM in test [3]; 1640 nM in [4]; 1.77 µM in test [5]; 1.83 µM in test [6]. The GI50 in test [7] is 1840 nM; in test [8] it was 1380 nM; in [9] it was 1.43 µM; in test [10] it was 1830 nM. For the same compound, the TGI in [1] stood at 3.44 µM; in test [2], 5.31 µM; in test [3] it was 3.6 µM; in [4], 3.02 µM; in test [5], 3.44 µM; in test [6], 3.72 µM. Further, the TGI in [7] was 3.34 µM; in test [8] it was 2.72 µM; in [9] it was 2.84 µM; in [10] it was 4.84 µM.

For the compound `COc1cc(C#Cc2ccc(=O)oc2C#Cc2ccccc2)cc(OC)c1OC`, the GI50 in [1] was 3390 nM; in [2], 6.39 µM; in test [3], 5.69 µM; in test [4] it was 2020 nM; in test [5], 3.94 µM; in test [6] it was 5.74 µM. In addition, the GI50 in test [7] is 1930 nM; in test [8], 2700 nM; in test [9], 19.1 µM; in test [10], 4020 nM. Besides, the TGI in test [1] is 12.2 µM; in test [2] it was 18.9 µM; in [3], 12.7 µM; in test [4], 4.77 µM; in test [5], 16.4 µM; in test [6] it was 12.1 µM. Further, the TGI in [7] was 3.58 µM; in test [8] it was 7.62 µM; in test [9], 34.5 µM; in test [10] it was above 100 µM.

Regarding `O=C(CO[N+](=O)[O-])Nc1ccc(C(=O)/C=C/c2ccc(Cl)cc2)cc1`, the GI50 is 11600 nM in test [1]; 3.87 µM in [2]; 9.69 µM in test [3]; 4230 nM in [4]; 12.7 µM in test [5]; 14.8 µM in test [6]. In addition, the GI50 in [7] was 2220 nM; in test [8], 3190 nM; in [9], 15.4 µM; in test [10], 2730 nM. For the same compound, the TGI in test [1] is 48 µM; in [2], above 100 µM; in test [3], 23.3 µM; in [4], 15.3 µM; in test [5] it was 54.9 µM; in test [6] it was 36 µM. For the same compound, the TGI was determined as 6.55 µM in [7], 17.6 µM in [8], 54.9 µM in test [9] and 16.5 µM in test [10].

With `OCc1ccc(-c2ccc(-c3ccc(CO)o3)[se]2)o1`, the GI50 in [1] is above 100000 nM; in test [2], above 60.9 µM; in [3], above 84.5 µM; in [4] it was 34800 nM; in test [5], above 72.7 µM; in [6], 0.629 µM. The GI50 in [7] is 31300 nM; in test [8] it was 37000 nM; in test [9], 0.17 µM; in [10], 35500 nM. Further, the TGI in test [1], in [2], in [3], in test [4], in test [5] and in [6] was above 100 µM each time. Moreover, the TGI was above 100 µM in test [7], above 100 µM in test [8], 0.375 µM in test [9] and above 100 µM in test [10].

With `O=c1c(Oc2ccc(F)cc2F)cc2cnc(NC3CCOCC3)nc2n1CCCO`, the GI50 in test [1] is above 25000 nM; in test [2], above 25 µM; in [3], above 25 µM; in test [4], above 25000 nM; in [5] it was above 25 µM; in test [6], above 25 µM. Besides, the GI50 is above 25000 nM in test [7], 24400 nM in [8], above 18.3 µM in [9] and above 25000 nM in test [10]. The TGI in [1], in test [2], in test [3], in [4], in test [5] and in test [6] was above 25 µM each time. Moreover, the TGI in [7], in test [8], in test [9] and in [10] was above 25 µM in each case.

As for `FC(F)(F)c1nc2nc(Cl)c(Cl)nc2n1CCCN1CCOCC1`, the TGI in [1], in test [2], in test [3], in [4], in test [5] and in test [6] was above 100 µM throughout. The TGI in test [7], in test [8], in test [9] and in [10] was above 100 µM in each case.

Take `CCc1cccc(C)c1NC(=O)c1sc2nc3c(cc2c1N)CCCCC3`: the GI50 was 4580 nM in test [1]; 2.36 µM in [2]; 3.27 µM in [3]; 2970 nM in [4]; 3.52 µM in test [5]; 7.74 µM in test [6]. In addition, the GI50 is 2560 nM in [7], 1790 nM in [8], 2.2 µM in [9] and 2680 nM in test [10]. The TGI in test [1] is above 100 µM; in test [2], 14.1 µM; in test [3], above 100 µM; in test [4] it was 13.8 µM; in test [5], 26.6 µM; in [6], above 100 µM. The TGI in test [7] is 9.02 µM; in test [8] it was 51.5 µM; in test [9], 23.3 µM; in test [10] it was above 100 µM.
